In ChEMBL document CHEMBL3600353, “In Vitro Activity of Epigallocatechin Gallate and Quercetin Alone and in Combination versus Clinical Isolates of Methicillin-Resistant Staphylococcus aureus” (2015):
Active and inactive are the calls of the source. The rule behind the calls is not given here.

Experiments:
Staphylococcus aureus [1] = assay: Antibacterial activity against methicillin-resistant Staphylococcus aureus isolate 1 by disk diffusion assay; format: functional
Staphylococcus aureus [2] = assay: Antibacterial activity against methicillin-resistant Staphylococcus aureus isolate 2 by disk diffusion assay; format: functional
Staphylococcus aureus [3] = assay: Antibacterial activity against methicillin-resistant Staphylococcus aureus isolate 3 by disk diffusion assay; format: functional
Staphylococcus aureus [4] = assay: Antibacterial activity against methicillin-resistant Staphylococcus aureus isolate 4 by disk diffusion assay; format: functional
Staphylococcus aureus [5] = assay: Antibacterial activity against methicillin-resistant Staphylococcus aureus isolate 5 by disk diffusion assay; format: functional
Staphylococcus aureus [6] = assay: Antibacterial activity against methicillin-resistant Staphylococcus aureus isolate 6 by disk diffusion assay; format: functional
Staphylococcus aureus [7] = assay: Antibacterial activity against methicillin-resistant Staphylococcus aureus isolate 7 by disk diffusion assay; format: functional
Staphylococcus aureus [8] = assay: Antibacterial activity against methicillin-resistant Staphylococcus aureus isolate 8 by disk diffusion assay; format: functional
Staphylococcus aureus [9] = assay: Antibacterial activity against methicillin-resistant Staphylococcus aureus isolate 9 by disk diffusion assay; format: functional
Staphylococcus aureus [10] = assay: Antibacterial activity against methicillin-resistant Staphylococcus aureus NCTC 12493 after 24 hrs by checkerboard assay; format: functional; settings: NCTC 12493, 24 h
Staphylococcus aureus [11] = assay: Antibacterial activity against methicillin-resistant Staphylococcus aureus isolate 1 after 24 hrs by checkerboard assay; format: functional; settings: isolate 1, 24 h
Staphylococcus aureus [12] = assay: Antibacterial activity against methicillin-resistant Staphylococcus aureus isolate 2 after 24 hrs by checkerboard assay; format: functional; settings: isolate 2, 24 h
Staphylococcus aureus [13] = assay: Antibacterial activity against methicillin-resistant Staphylococcus aureus isolate 3 after 24 hrs by checkerboard assay; format: functional; settings: isolate 3, 24 h
Staphylococcus aureus [14] = assay: Antibacterial activity against methicillin-resistant Staphylococcus aureus isolate 4 after 24 hrs by checkerboard assay; format: functional; settings: isolate 4, 24 h
Staphylococcus aureus [15] = assay: Antibacterial activity against methicillin-resistant Staphylococcus aureus isolate 5 after 24 hrs by checkerboard assay; format: functional; settings: isolate 5, 24 h
Staphylococcus aureus [16] = assay: Antibacterial activity against methicillin-resistant Staphylococcus aureus isolate 6 after 24 hrs by checkerboard assay; format: functional; settings: isolate 6, 24 h
Staphylococcus aureus [17] = assay: Antibacterial activity against methicillin-resistant Staphylococcus aureus isolate 7 after 24 hrs by checkerboard assay; format: functional; settings: isolate 7, 24 h
Staphylococcus aureus [18] = assay: Antibacterial activity against methicillin-resistant Staphylococcus aureus isolate 8 after 24 hrs by checkerboard assay; format: functional; settings: isolate 8, 24 h
Staphylococcus aureus [19] = assay: Antibacterial activity against methicillin-resistant Staphylococcus aureus isolate 9 after 24 hrs by checkerboard assay; format: functional; settings: isolate 9, 24 h
Staphylococcus aureus [20] = assay: Antibacterial activity against vancomycin-intermediate resistant Staphylococcus aureus Mu50 after 24 hrs by checkerboard assay; format: functional; settings: Mu50, 24 h
Staphylococcus aureus [21] = assay: Antibacterial activity against Staphylococcus aureus ATCC 25923 after 24 hrs by checkerboard assay; format: functional; settings: ATCC 25923, 24 h
Staphylococcus aureus [22] = assay: Antibacterial activity against methicillin-resistant Staphylococcus aureus NCTC 12493 assessed as reduction of epigallocatechin gallate MIC after 24 hrs by checkerboard assay in presence of quercetin; format: functional; settings: NCTC 12493, 24 h
Staphylococcus aureus [23] = assay: Antibacterial activity against methicillin-resistant Staphylococcus aureus isolate 1 assessed as reduction of epigallocatechin gallate MIC after 24 hrs by checkerboard assay in presence of quercetin; format: functional; settings: isolate 1, 24 h
Staphylococcus aureus [24] = assay: Antibacterial activity against methicillin-resistant Staphylococcus aureus isolate 2 assessed as reduction of epigallocatechin gallate MIC after 24 hrs by checkerboard assay in presence of quercetin; format: functional; settings: isolate 2, 24 h
Staphylococcus aureus [25] = assay: Antibacterial activity against methicillin-resistant Staphylococcus aureus isolate 3 assessed as reduction of epigallocatechin gallate MIC after 24 hrs by checkerboard assay in presence of quercetin; format: functional; settings: isolate 3, 24 h
Staphylococcus aureus [26] = assay: Antibacterial activity against methicillin-resistant Staphylococcus aureus isolate 4 assessed as reduction of epigallocatechin gallate MIC after 24 hrs by checkerboard assay in presence of quercetin; format: functional; settings: isolate 4, 24 h
Staphylococcus aureus [27] = assay: Antibacterial activity against methicillin-resistant Staphylococcus aureus isolate 5 assessed as reduction of epigallocatechin gallate MIC after 24 hrs by checkerboard assay in presence of quercetin; format: functional; settings: isolate 5, 24 h
Staphylococcus aureus [28] = assay: Antibacterial activity against methicillin-resistant Staphylococcus aureus isolate 6 assessed as reduction of epigallocatechin gallate MIC after 24 hrs by checkerboard assay in presence of quercetin; format: functional; settings: isolate 6, 24 h
Staphylococcus aureus [29] = assay: Antibacterial activity against methicillin-resistant Staphylococcus aureus isolate 7 assessed as reduction of epigallocatechin gallate MIC after 24 hrs by checkerboard assay in presence of quercetin; format: functional; settings: isolate 7, 24 h
Staphylococcus aureus [30] = assay: Antibacterial activity against methicillin-resistant Staphylococcus aureus isolate 8 assessed as reduction of epigallocatechin gallate MIC after 24 hrs by checkerboard assay in presence of quercetin; format: functional; settings: isolate 8, 24 h
Staphylococcus aureus [31] = assay: Antibacterial activity against methicillin-resistant Staphylococcus aureus isolate 9 assessed as reduction of epigallocatechin gallate MIC after 24 hrs by checkerboard assay in presence of quercetin; format: functional; settings: isolate 9, 24 h
Staphylococcus aureus [32] = assay: Antibacterial activity against vancomycin-intermediate resistant Staphylococcus aureus Mu50 assessed as reduction of epigallocatechin gallate MIC after 24 hrs by checkerboard assay in presence of quercetin; format: functional; settings: Mu50, 24 h
Staphylococcus aureus [33] = assay: Antibacterial activity against Staphylococcus aureus ATCC 25923 assessed as reduction of epigallocatechin gallate MIC after 24 hrs by checkerboard assay in presence of quercetin; format: functional; settings: ATCC 25923, 24 h
Staphylococcus aureus [34] = assay: Antibacterial activity against methicillin-resistant Staphylococcus aureus NCTC 12493 after 24 hrs by checkerboard assay in presence of quercetin; format: functional
Staphylococcus aureus [35] = assay: Antibacterial activity against methicillin-resistant Staphylococcus aureus isolate 1 after 24 hrs by checkerboard assay in presence of quercetin; format: functional
Staphylococcus aureus [36] = assay: Antibacterial activity against methicillin-resistant Staphylococcus aureus isolate 2 after 24 hrs by checkerboard assay in presence of quercetin; format: functional
Staphylococcus aureus [37] = assay: Antibacterial activity against methicillin-resistant Staphylococcus aureus isolate 3 after 24 hrs by checkerboard assay in presence of quercetin; format: functional
Staphylococcus aureus [38] = assay: Antibacterial activity against methicillin-resistant Staphylococcus aureus isolate 4 after 24 hrs by checkerboard assay in presence of quercetin; format: functional
Staphylococcus aureus [39] = assay: Antibacterial activity against methicillin-resistant Staphylococcus aureus isolate 5 after 24 hrs by checkerboard assay in presence of quercetin; format: functional
Staphylococcus aureus [40] = assay: Antibacterial activity against methicillin-resistant Staphylococcus aureus isolate 6 after 24 hrs by checkerboard assay in presence of quercetin; format: functional
Staphylococcus aureus [41] = assay: Antibacterial activity against methicillin-resistant Staphylococcus aureus isolate 7 after 24 hrs by checkerboard assay in presence of quercetin; format: functional
Staphylococcus aureus [42] = assay: Antibacterial activity against methicillin-resistant Staphylococcus aureus isolate 8 after 24 hrs by checkerboard assay in presence of quercetin; format: functional
Staphylococcus aureus [43] = assay: Antibacterial activity against methicillin-resistant Staphylococcus aureus isolate 9 after 24 hrs by checkerboard assay in presence of quercetin; format: functional
Staphylococcus aureus [44] = assay: Antibacterial activity against vancomycin-intermediate resistant Staphylococcus aureus Mu50 after 24 hrs by checkerboard assay in presence of quercetin; format: functional
Staphylococcus aureus [45] = assay: Antibacterial activity against Staphylococcus aureus ATCC 25923 after 24 hrs by checkerboard assay in presence of quercetin; format: functional
Staphylococcus aureus [46] = assay: Antibacterial activity against methicillin-sensitive Staphylococcus aureus ATCC 25923 at 0.56 mM after 4 hrs by time kill assay; format: functional, organism-based
Staphylococcus aureus [47] = assay: Antibacterial activity against methicillin-resistant Staphylococcus aureus NCTC 12493 at 0.28 mM after 4 hrs by time kill assay; format: functional, organism-based
Staphylococcus aureus [48] = assay: Antibacterial activity against vancomycin-intermediate resistant Staphylococcus aureus Mu50 at 0.56 mM after 4 hrs by time kill assay; format: functional, organism-based
Staphylococcus aureus [49] = assay: Antibacterial activity against methicillin-sensitive Staphylococcus aureus ATCC 25923 after 24 hrs by time kill assay; format: functional, organism-based
Staphylococcus aureus [50] = assay: Antibacterial activity against methicillin-resistant Staphylococcus aureus NCTC 12493 after 24 hrs by time kill assay; format: functional, organism-based
Staphylococcus aureus [51] = assay: Antibacterial activity against vancomycin-intermediate resistant Staphylococcus aureus Mu50 after 24 hrs by time kill assay; format: functional, organism-based
Staphylococcus aureus [52] = assay: Antibacterial activity against methicillin-sensitive Staphylococcus aureus ATCC 25923 at 0.56 mM after 24 hrs by time kill assay; format: functional, organism-based
Staphylococcus aureus [53] = assay: Antibacterial activity against methicillin-resistant Staphylococcus aureus NCTC 12493 at 0.28 mM after 24 hrs by time kill assay; format: functional, organism-based
Staphylococcus aureus [54] = assay: Antibacterial activity against vancomycin-intermediate resistant Staphylococcus aureus Mu50 at 0.56 mM after 24 hrs by time kill assay; format: functional, organism-based
Staphylococcus aureus [55] = assay: Antibacterial activity against methicillin-resistant Staphylococcus aureus NCTC 12493 assessed as log reduction of colony forming unit at 0.28 mM after 2 hrs; format: functional, organism-based
Staphylococcus aureus [56] = assay: Antibacterial activity against methicillin-resistant Staphylococcus aureus NCTC 12493 assessed as log reduction of colony forming unit at 0.28 mM after 4 hrs; format: functional, organism-based
Staphylococcus aureus [57] = assay: Antibacterial activity against methicillin-resistant Staphylococcus aureus NCTC 12493 assessed as log reduction of colony forming unit at 0.28 mM after 24 hrs; format: functional, organism-based
Staphylococcus aureus [58] = assay: Antibacterial activity against vancomycin-intermediate resistant Staphylococcus aureus Mu50 assessed as log reduction of colony forming unit at 0.28 mM after 24 hrs; format: functional, organism-based
Staphylococcus aureus [59] = assay: Antibacterial activity against methicillin-sensitive Staphylococcus aureus ATCC 25923 at 0.56 mM after 24 hrs by time kill assay in presence of 0.85 mM of quercetin; format: functional, organism-based
Staphylococcus aureus [60] = assay: Antibacterial activity against methicillin-sensitive Staphylococcus aureus ATCC 25923 at 0.56 mM after 24 hrs by time kill assay in presence of 0.42 mM of quercetin; format: functional, organism-based
Staphylococcus aureus [61] = assay: Antibacterial activity against methicillin-sensitive Staphylococcus aureus ATCC 25923 at 0.28 mM after 24 hrs by time kill assay in presence of 0.42 mM of quercetin; format: functional, organism-based
Staphylococcus aureus [62] = assay: Antibacterial activity against methicillin-sensitive Staphylococcus aureus ATCC 25923 at 0.28 mM after 24 hrs by time kill assay in presence of 0.2 mM of quercetin; format: functional, organism-based

Compound: O=C(O[C@@H]1Cc2c(O)cc(O)cc2O[C@@H]1c1cc(O)c(O)c(O)c1)c1cc(O)c(O)c(O)c1 [EPIGALOCATECHIN GALLATE]
- inhibition zone (IZ) (Staphylococcus aureus [1]): 8 mm
- inhibition zone (IZ) (Staphylococcus aureus [2]): >=19 mm
- inhibition zone (IZ) (Staphylococcus aureus [3]): >=19 mm
- inhibition zone (IZ) (Staphylococcus aureus [4]): >=19 mm
- inhibition zone (IZ) (Staphylococcus aureus [5]): >=19 mm
- inhibition zone (IZ) (Staphylococcus aureus [6]): >=19 mm
- inhibition zone (IZ) (Staphylococcus aureus [7]): >=19 mm
- inhibition zone (IZ) (Staphylococcus aureus [8]): >=19 mm
- inhibition zone (IZ) (Staphylococcus aureus [9]): >=19 mm
- MIC (Staphylococcus aureus [10]): 140 µM
- MIC (Staphylococcus aureus [11]): 280 µM
- MIC (Staphylococcus aureus [12]): 280 µM
- MIC (Staphylococcus aureus [13]): 280 µM
- MIC (Staphylococcus aureus [14]): 280 µM
- MIC (Staphylococcus aureus [15]): 280 µM
- MIC (Staphylococcus aureus [16]): 280 µM
- MIC (Staphylococcus aureus [17]): 280 µM
- MIC (Staphylococcus aureus [18]): 280 µM
- MIC (Staphylococcus aureus [19]): 280 µM
- MIC (Staphylococcus aureus [20]): 280 µM
- MIC (Staphylococcus aureus [21]): 560 µM
- MIC (Staphylococcus aureus [22]): 4 µM
- MIC (Staphylococcus aureus [23]): 70 µM
- MIC (Staphylococcus aureus [24]): 40 µM
- MIC (Staphylococcus aureus [25]): 70 µM
- MIC (Staphylococcus aureus [26]): 70 µM
- MIC (Staphylococcus aureus [27]): 70 µM
- MIC (Staphylococcus aureus [28]): 70 µM
- MIC (Staphylococcus aureus [29]): 70 µM
- MIC (Staphylococcus aureus [30]): 70 µM
- MIC (Staphylococcus aureus [31]): 70 µM
- MIC (Staphylococcus aureus [32]): 20 µM
- MIC (Staphylococcus aureus [33]): 20 µM
- fractional inhibitory concentration index (FICI) (Staphylococcus aureus [34]): 0.06
- fractional inhibitory concentration index (FICI) (Staphylococcus aureus [35]): 0.31
- fractional inhibitory concentration index (FICI) (Staphylococcus aureus [36]): 0.2
- fractional inhibitory concentration index (FICI) (Staphylococcus aureus [37]): 0.31
- fractional inhibitory concentration index (FICI) (Staphylococcus aureus [38]): 0.28
- fractional inhibitory concentration index (FICI) (Staphylococcus aureus [39]): 0.28
- fractional inhibitory concentration index (FICI) (Staphylococcus aureus [40]): 0.31
- fractional inhibitory concentration index (FICI) (Staphylococcus aureus [41]): 0.31
- fractional inhibitory concentration index (FICI) (Staphylococcus aureus [42]): 0.31
- fractional inhibitory concentration index (FICI) (Staphylococcus aureus [43]): 0.28
- fractional inhibitory concentration index (FICI) (Staphylococcus aureus [44]): 0.09
- fractional inhibitory concentration index (FICI) (Staphylococcus aureus [45]): 0.07
- Activity (Staphylococcus aureus [46]): Active
- Activity (Staphylococcus aureus [47]): Active
- Activity (Staphylococcus aureus [48]): Active
- Activity (Staphylococcus aureus [49]): Active
- Activity (Staphylococcus aureus [50]): Active
- Activity (Staphylococcus aureus [51]): Active
- Activity (Staphylococcus aureus [52]): Active
- Activity (Staphylococcus aureus [53]): Active
- Activity (Staphylococcus aureus [54]): Active
- Activity (Staphylococcus aureus [55]): Active
- Activity (Staphylococcus aureus [56]): Active
- Activity (Staphylococcus aureus [57]): Active
- Activity (Staphylococcus aureus [58]): Active
- Activity (Staphylococcus aureus [59]): Active
- Activity (Staphylococcus aureus [60]): Active
- Activity (Staphylococcus aureus [61]): Active
- Activity (Staphylococcus aureus [62]): Active
